Source: US11839679B2, “Gamma-diketones for treatment and prevention of aging skin and wrinkles” (BioSplice Therapeutics, Inc., priority 2014, dated 2023)

System: fine lines, wrinkles in the outer canthus of the eyes (crow's feet area)
Assay: Panelist self-assessment questionnaire, Example 1
Type: in vivo, human
Design: key to Q2 appearance of my skin around either of my eyes, Score: 1: Better; 2: Little better; 3: Same; 4: Little worse; 5: Worse
Details: for Q3 how do you feel about the treated area surrounding your eyes and the appearance of wrinkles, % Responders Score 3: Score 3 = Neither satisfied or dissatisfied; for Q2 appearance of my skin around either of my eyes, % Responders Score 3: Score 3 = Same; for Q4 any discomfort, other than slight tingling, in the treated area during the study, % Responders Score 3: Score 3 = Yes, occasional discomfort lasting more than one hour; for Q1 My wrinkles in the eye area have improved, % Responders Score 4: Score 4 = Disagree; for Q3 how do you feel about the treated area surrounding your eyes and the appearance of wrinkles, % Responders Score 4: Score 4 = Dissatisfied; for Q2 appearance of my skin around either of my eyes, % Responders Score 4: Score 4 = Little worse; for Q4 any discomfort, other than slight tingling, in the treated area during the study, % Responders Score 4: Score 4 = Yes, every day lasting less than an hour; for Q1 My wrinkles in the eye area have improved, % Responders Score 5: Score 5 = Strongly disagree; for Q3 how do you feel about the treated area surrounding your eyes and the appearance of wrinkles, % Responders Score 5: Score 5 = Very Dissatisfied; for Q2 appearance of my skin around either of my eyes, % Responders Score 5: Score 5 = Worse; for Q4 any discomfort, other than slight tingling, in the treated area during the study, % Responders Score 5: Score 5 = Yes, everyday lasting more than an hour
Method: Three groups of women were recruited to evaluate and compare the efficacy of three anti-aging test products (targeting the periorbital eye area) intended to reduce the appearance of fine lines, wrinkles in the outer canthus of the eyes (crow's feet area) over a 12 week period. Wrinkle assessment was conducted instrumentally using a Visioscan image analysis system. Effectiveness of the test product was evaluated using panelist self-assessment via questionnaire responses comprised of 3-4 questions (Q1, Q2, Q3 & Q4). Each stage in the progression of treatments was photographically documented using a High Resolution Scientifically Matched Photography technique. Image analysis was utilized to quantify changes in fine lines and crow's feet condition observed in the Scientifically Matched Photographs.
Subject Selection: • Number: Six subjects (two per group) to complete the study. • Sex: Females • Race: Caucasian/Asian/Hispanic • Age Range: 40 through 60 years old
Test samples: • Topical 0.15% of Compound #222 in Oil (a 50/50 mixture of • Propylene Glycol Dicaprylate/Dicaprate and Caprylic/Capric Triglyceride) (Cohort 1) • Topical 0.15% of Compound #222 in PEG400 (Cohort 2) • Topical 0.05% of Compound #222 in PEG400 (Cohort 3)
All subjects were instructed to use the test material once a day, as part of their daily skin care routine. Immediately following baseline evaluations, the subjects were issued the product with the following instructions:
GROUP 1—Compound #222 Topical 0.15% in oil (Cohort 1): The subjects were instructed to hold the bottle at an angle such that the roller-ball was at bottom and apply the roller-ball to the periorbital area, including the crow's feet area, 2-3 times, starting from the area under the eye (and above the cheekbone) and moving up towards the outer tip of the eye-brow. After 2-3 rolls, they were able to see wetness on the treated area. This procedure was repeated for the other eye.
GROUPS 2 & 3 Compound #222 Topical 0.15% in PEG (Cohort 2) & Compound #222 Topical 0.05% in PEG (Cohort 3): The subjects were instructed to hold the dispenser upright with one hand and with the tip of the index finger on the pump (similar to holding a spray container), pour a small amount of the product into the palm of their other hand by pumping once or twice. The product was then applied on to the periorbital area, including the crow's feet area, of both eyes with their index finger.
[…] After acclimating to ambient conditions, High Resolution Scientifically Matched Photographs were be taken and biophysical measurements (Surface Evaluation of Living Skin via Visioscan) were repeated using the standard template to identify test sites on the face. In addition (during the acclimation period) all participants were be asked to fill out a self-assessment questionnaire.
The source data was Visioscan and PhotoGrammetrix Image Analysis readings along with subjective assessments, which were totaled and reported as average scores. Photographs were placed side by side as to compare the photographs of before and after application of the test product in the eye area. Wrinkle reduction analysis source data consisted of crow's feet area quantification in relative units (px), collected at baseline and, the week 2, 4, 8 and 12 evaluations. The data obtained via Visioscan and from PhotoGrammetrix Image Analysis was quoted as % differences from baseline at each of the previously described time points. A paired t-test analysis was conducted in order to compare the results of post test product application measurements to baseline measurements where applicable. Statistical significance was established if p≤(α=0.05) was calculated.

[1] = Day 7, Topical 0.05% in PEG (Cohort 3)
[2] = Day 7, Topical 0.15% in Oil (Cohort 1)
[3] = Day 7, Topical 0.15% in PEG (Cohort 2)
[4] = Day 14, Topical 0.05% in PEG (Cohort 3)
[5] = Day 14, Topical 0.15% in Oil (Cohort 1)
[6] = Day 14, Topical 0.15% in PEG (Cohort 2)

O=C(CCC(=O)c1ccc2c(c1)OCO2)c1ccccc1 [#222]
3: Q2 appearance of my skin around either of my eyes, Score (Subject #1, Day 7, Topical 0.15% in Oil (Cohort 1)) | Q2 appearance of my skin around either of my eyes, Score (Subject #1, Day 14, Topical 0.15% in Oil (Cohort 1)) | Q2 appearance of my skin around either of my eyes, Score (Subject #4, Day 7, Topical 0.15% in PEG (Cohort 2)) | Q2 appearance of my skin around either of my eyes, Score (Subject #4, Day 14, Topical 0.15% in PEG (Cohort 2))
50%: Q3 how do you feel about the treated area surrounding your eyes and the appearance of wrinkles, % Responders Score 3 [1] | Q3 how do you feel about the treated area surrounding your eyes and the appearance of wrinkles, % Responders Score 3 [2] | Q3 how do you feel about the treated area surrounding your eyes and the appearance of wrinkles, % Responders Score 3 [3] | Q3 how do you feel about the treated area surrounding your eyes and the appearance of wrinkles, % Responders Score 3 [5] | Q2 appearance of my skin around either of my eyes, % Responders Score 3 [2] | Q2 appearance of my skin around either of my eyes, % Responders Score 3 [3] | Q2 appearance of my skin around either of my eyes, % Responders Score 3 [5] | Q2 appearance of my skin around either of my eyes, % Responders Score 3 [6] | Q1 My wrinkles in the eye area have improved, % Responders Score 4 [3] | Q1 My wrinkles in the eye area have improved, % Responders Score 4 [5] | Q1 My wrinkles in the eye area have improved, % Responders Score 4 [6] | Q3 how do you feel about the treated area surrounding your eyes and the appearance of wrinkles, % Responders Score 4 [6] | Q4 any discomfort, other than slight tingling, in the treated area during the study, % Responders Score 4 [6] | Q1 My wrinkles in the eye area have improved, % Responders Score 5 [2]
1: Q2 appearance of my skin around either of my eyes, Score (Subject #5, Day 7, Topical 0.05% in PEG (Cohort 3)) | Q2 appearance of my skin around either of my eyes, Score (Subject #5, Day 14, Topical 0.05% in PEG (Cohort 3))
0%: Q3 how do you feel about the treated area surrounding your eyes and the appearance of wrinkles, % Responders Score 3 [4] | Q3 how do you feel about the treated area surrounding your eyes and the appearance of wrinkles, % Responders Score 3 [6] | Q2 appearance of my skin around either of my eyes, % Responders Score 3 [1] | Q2 appearance of my skin around either of my eyes, % Responders Score 3 [4] | Q4 any discomfort, other than slight tingling, in the treated area during the study, % Responders Score 3 [1] | Q4 any discomfort, other than slight tingling, in the treated area during the study, % Responders Score 3 [2] | Q4 any discomfort, other than slight tingling, in the treated area during the study, % Responders Score 3 [3] | Q4 any discomfort, other than slight tingling, in the treated area during the study, % Responders Score 3 [4] | Q4 any discomfort, other than slight tingling, in the treated area during the study, % Responders Score 3 [5] | Q4 any discomfort, other than slight tingling, in the treated area during the study, % Responders Score 3 [6] | Q1 My wrinkles in the eye area have improved, % Responders Score 4 [1] | Q1 My wrinkles in the eye area have improved, % Responders Score 4 [2] | Q1 My wrinkles in the eye area have improved, % Responders Score 4 [4] | Q3 how do you feel about the treated area surrounding your eyes and the appearance of wrinkles, % Responders Score 4 [1] | Q3 how do you feel about the treated area surrounding your eyes and the appearance of wrinkles, % Responders Score 4 [2] | Q3 how do you feel about the treated area surrounding your eyes and the appearance of wrinkles, % Responders Score 4 [3] | Q3 how do you feel about the treated area surrounding your eyes and the appearance of wrinkles, % Responders Score 4 [4] | Q3 how do you feel about the treated area surrounding your eyes and the appearance of wrinkles, % Responders Score 4 [5] | Q2 appearance of my skin around either of my eyes, % Responders Score 4 [1] | Q2 appearance of my skin around either of my eyes, % Responders Score 4 [2] | Q2 appearance of my skin around either of my eyes, % Responders Score 4 [3] | Q2 appearance of my skin around either of my eyes, % Responders Score 4 [4] | Q2 appearance of my skin around either of my eyes, % Responders Score 4 [5] | Q2 appearance of my skin around either of my eyes, % Responders Score 4 [6] | Q4 any discomfort, other than slight tingling, in the treated area during the study, % Responders Score 4 [1] | Q4 any discomfort, other than slight tingling, in the treated area during the study, % Responders Score 4 [2] | Q4 any discomfort, other than slight tingling, in the treated area during the study, % Responders Score 4 [3] | Q4 any discomfort, other than slight tingling, in the treated area during the study, % Responders Score 4 [4] | Q4 any discomfort, other than slight tingling, in the treated area during the study, % Responders Score 4 [5] | Q1 My wrinkles in the eye area have improved, % Responders Score 5 [1] | Q1 My wrinkles in the eye area have improved, % Responders Score 5 [3] | Q1 My wrinkles in the eye area have improved, % Responders Score 5 [4] | Q1 My wrinkles in the eye area have improved, % Responders Score 5 [5] | Q1 My wrinkles in the eye area have improved, % Responders Score 5 [6] | Q3 how do you feel about the treated area surrounding your eyes and the appearance of wrinkles, % Responders Score 5 [1] | Q3 how do you feel about the treated area surrounding your eyes and the appearance of wrinkles, % Responders Score 5 [2] | Q3 how do you feel about the treated area surrounding your eyes and the appearance of wrinkles, % Responders Score 5 [3] | Q3 how do you feel about the treated area surrounding your eyes and the appearance of wrinkles, % Responders Score 5 [4] | Q3 how do you feel about the treated area surrounding your eyes and the appearance of wrinkles, % Responders Score 5 [5] | Q3 how do you feel about the treated area surrounding your eyes and the appearance of wrinkles, % Responders Score 5 [6] | Q2 appearance of my skin around either of my eyes, % Responders Score 5 [1] | Q2 appearance of my skin around either of my eyes, % Responders Score 5 [2] | Q2 appearance of my skin around either of my eyes, % Responders Score 5 [3] | Q2 appearance of my skin around either of my eyes, % Responders Score 5 [4] | Q2 appearance of my skin around either of my eyes, % Responders Score 5 [5] | Q2 appearance of my skin around either of my eyes, % Responders Score 5 [6] | Q4 any discomfort, other than slight tingling, in the treated area during the study, % Responders Score 5 [1] | Q4 any discomfort, other than slight tingling, in the treated area during the study, % Responders Score 5 [2] | Q4 any discomfort, other than slight tingling, in the treated area during the study, % Responders Score 5 [3] | Q4 any discomfort, other than slight tingling, in the treated area during the study, % Responders Score 5 [4] | Q4 any discomfort, other than slight tingling, in the treated area during the study, % Responders Score 5 [5] | Q4 any discomfort, other than slight tingling, in the treated area during the study, % Responders Score 5 [6]
2: Q2 appearance of my skin around either of my eyes, Score (Subject #2, Day 7, Topical 0.15% in Oil (Cohort 1)) | Q2 appearance of my skin around either of my eyes, Score (Subject #2, Day 14, Topical 0.15% in Oil (Cohort 1)) | Q2 appearance of my skin around either of my eyes, Score (Subject #3, Day 7, Topical 0.15% in PEG (Cohort 2)) | Q2 appearance of my skin around either of my eyes, Score (Subject #3, Day 14, Topical 0.15% in PEG (Cohort 2)) | Q2 appearance of my skin around either of my eyes, Score (Subject #6, Day 7, Topical 0.05% in PEG (Cohort 3)) | Q2 appearance of my skin around either of my eyes, Score (Subject #6, Day 14, Topical 0.05% in PEG (Cohort 3))
